Reference: US8431704B2, “Quinoline or isoquinoline substituted P2X7 antagonists” (Janssen Pharmaceutica NV, priority 2008, dated 2013)

Target: T1, hP2X7 (Homo sapiens, UniProt Q99572)
T1 construct: expressed in transfected cells; host or cells: 1321N1 astrocytoma cells
T1 sequence (Q99572 1-595): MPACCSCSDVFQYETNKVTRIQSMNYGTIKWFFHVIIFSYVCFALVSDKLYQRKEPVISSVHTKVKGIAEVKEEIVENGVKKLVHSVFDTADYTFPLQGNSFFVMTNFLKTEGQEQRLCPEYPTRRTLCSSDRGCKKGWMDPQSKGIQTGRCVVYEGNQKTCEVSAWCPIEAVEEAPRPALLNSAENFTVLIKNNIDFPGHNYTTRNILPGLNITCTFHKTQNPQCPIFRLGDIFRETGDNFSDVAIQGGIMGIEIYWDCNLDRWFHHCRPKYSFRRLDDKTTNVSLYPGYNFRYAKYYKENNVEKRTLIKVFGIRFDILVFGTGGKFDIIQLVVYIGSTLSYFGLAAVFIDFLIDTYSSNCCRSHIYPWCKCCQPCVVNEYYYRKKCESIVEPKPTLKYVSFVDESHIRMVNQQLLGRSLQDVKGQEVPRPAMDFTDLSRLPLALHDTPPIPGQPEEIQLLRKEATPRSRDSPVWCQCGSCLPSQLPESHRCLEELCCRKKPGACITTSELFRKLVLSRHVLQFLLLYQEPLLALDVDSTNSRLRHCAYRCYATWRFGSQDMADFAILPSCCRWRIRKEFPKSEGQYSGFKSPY
Assay: P2X7 antagonism: ligand-induced Ca2+ flux in 1321N1 astrocytoma cells overexpressing hP2X7
Assay type: cell-based
Settings: pIC50 = -log(IC50), read-out: hP2RX7pIC50 (mean pIC50 values) (converted)
Method: Extracellular binding of ATP to P2X7 that is expressed in the cell-membrane opens the ligand gated cation channel and allows Ca^2+ entry into the cell. This ligand-induced Ca^2+ flux was measured in 1321N1 astrocytoma cells overexpressing hP2X7 for the compounds of the present invention.
The calcium assay kit used (Molecular Devices, R8090), provides a Ca^2+ sensitive dye together with a quenching dye. However, no specifications are given by the manufacturer. The kit most likely consists of a membrane permeable acetoxymethyl (AM) ester of a fluorescent Ca^2+ indicator, such as fluo-4 or fluo-3. Upon cellular uptake, the AM esters get cleaved by esterases, liberating the Ca^2+-sensitive dye which can then bind calcium. The dyes have an absorption spectrum compatible with excitation at 488 nm by argon laser sources and a large fluorescence intensity increase in response to Ca^2+ binding without an accompanying spectral shift. Emission wavelength is in the range of 510-560 nm.
The fluorescence, and thus the changes in intracellular [Ca^2+] in the 1321N1 cells was monitored in time before and after addition of the agonist. The effect of the antagonist was measured as % control and as IC50.

IC50 | Compound
89.1 nM | O=C(NCC(c1cnc(-c2ccccc2)nc1)N1CCC(F)(F)CC1)c1cccc2nc(NCC3CC3)ccc12 (stereo not drawn) [Compound 237]
38.9 nM | O=C(NCC(c1cnc(C2CCCC2)nc1)N1CCC(F)(F)CC1)c1cccc2nc(NC3CC3)ccc12 (stereo not drawn) [Compound 238]
53.7 nM | O=C(NCC(c1cnc(OC2CCC2)nc1)N1CCC(F)(F)CC1)c1cccc2nc(N3CCOCC3)ccc12 (stereo not drawn) [Compound 239]
57.5 nM | CC(=O)N1CCN(c2ncc(C(CNC(=O)c3cccc4nc(NCC5CC5)ccc34)N3CCC(F)(F)CC3)cn2)CC1 (stereo not drawn) [Compound 240]
117 nM | CC(C)Oc1ncc(C(CNC(=O)c2cccc3nc(N4CCOCC4)ccc23)N2CCOCC2)cn1 (stereo not drawn) [Compound 241]
115 nM | CC(C)Oc1ncc(C(CNC(=O)c2cccc3nc(NC4CC4)ccc23)N2CCOCC2)cn1 (stereo not drawn) [Compound 242]
50.1 nM | CCOc1ncc(C(CNC(=O)c2cccc3nc(NCC4CC4)ccc23)N2CCOCC2)cn1 (stereo not drawn) [Compound 243]
79.4 nM | CC(C)c1ncc(C(CNC(=O)c2cccc3nc(NCC4CC4)ccc23)N2CCOCC2)cn1 (stereo not drawn) [Compound 244]
170 nM | CN(C)c1ncc(C(CNC(=O)c2cccc3nc(NCC4CC4)ccc23)N2CCOCC2)cn1 (stereo not drawn) [Compound 245]
32.4 nM | O=C(NCC(c1cnc(OCC2CC2)nc1)N1CCC(F)(F)CC1)c1cccc2nc(N3CCOCC3)ccc12 (stereo not drawn) [Compound 246]
20.9 nM | O=C(NCC(c1cnc(OCC2CC2)nc1)N1CCC(F)(F)CC1)c1cccc2nc(NC3CC3)ccc12 (stereo not drawn) [Compound 247]
33.1 nM | CC(C)Oc1ncc(C(CNC(=O)c2cccc3nc(NCC4CC4)ccc23)N2CCC(F)(F)CC2)cn1 (stereo not drawn) [Compound 248]
51.3 nM | O=C(NCC(c1cnc(C2CCCC2)nc1)N1CCC(F)(F)CC1)c1cccc2nc(N3CCOCC3)ccc12 (stereo not drawn) [Compound 249]
77.6 nM | CC(=O)N1CCN(c2ncc(C(CNC(=O)c3cccc4nc(N5CCOCC5)ccc34)N3CCC(F)(F)CC3)cn2)CC1 (stereo not drawn) [Compound 250]
64.6 nM | CC(=O)N1CCN(c2ncc(C(CNC(=O)c3cccc4nc(NC5CC5)ccc34)N3CCC(F)(F)CC3)cn2)CC1 (stereo not drawn) [Compound 251]
49 nM | O=C(NCC(c1cnc(N2CCOCC2)nc1)N1CCC(F)(F)CC1)c1cccc2nc(NCC3CC3)ccc12 (stereo not drawn) [Compound 252]
36.3 nM | CCOc1ncc(C(CNC(=O)c2cccc3nc(N4CCOCC4)ccc23)N2CCC(F)(F)CC2)cn1 (stereo not drawn) [Compound 253]
29.5 nM | CCOc1ncc(C(CNC(=O)c2cccc3nc(NC4CC4)ccc23)N2CCC(F)(F)CC2)cn1 (stereo not drawn) [Compound 254]
44.7 nM | O=C(NCC(c1cncnc1)N1CCC(F)(F)CC1)c1cccc2nc(NC3CC3)ccc12 (stereo not drawn) [Compound 256]
26.3 nM | CCOc1ncc(C(CNC(=O)c2cccc3nc(NCC4CC4)ccc23)N2CCC(F)(F)CC2)cn1 (stereo not drawn) [Compound 257]

IC50 | Compound
44.7 nM | CC(C)c1ncc(C(CNC(=O)c2cccc3nc(NCC4CC4)ccc23)N2CCC(F)(F)CC2)cn1 (stereo not drawn) [Compound 258]
97.7 nM | O=C(NCC(c1cnc(N2CCCC2)nc1)N1CCOCC1)c1cccc2nc(NC3CC3)ccc12 (stereo not drawn) [Compound 259]
27.5 nM | COc1ncc(C(CNC(=O)c2cccc3nc(NCC4CC4)ccc23)N2CCC(F)(F)CC2)cn1 (stereo not drawn) [Compound 260]
37.2 nM | CC(C)c1ncc(C(CNC(=O)c2cccc3nc(NC4CC4)ccc23)N2CCC(F)(F)CC2)cn1 (stereo not drawn) [Compound 261]
56.2 nM | O=C(NCC(c1cnc(N2CCCC2)nc1)N1CCC(F)(F)CC1)c1cccc2nc(NCC3CC3)ccc12 (stereo not drawn) [Compound 262]
37.2 nM | O=C(NCC(c1cnc(NC2CC2)nc1)N1CCC(F)(F)CC1)c1cccc2nc(NCC3CC3)ccc12 (stereo not drawn) [Compound 263]
77.6 nM | O=C(NCC(c1cnc(N2CCCC2)nc1)N1CCOCC1)c1cccc2nc(NCC3CC3)ccc12 (stereo not drawn) [Compound 264]
64.6 nM | CC(C)c1ncc(C(CNC(=O)c2cccc3nc(N4CCOCC4)ccc23)N2CCC(F)(F)CC2)cn1 (stereo not drawn) [Compound 265]
50.1 nM | CN(C)c1ncc(C(CNC(=O)c2cccc3nc(NCC4CC4)ccc23)N2CCC(F)(F)CC2)cn1 (stereo not drawn) [Compound 266]
115 nM | Nc1ncc(C(CNC(=O)c2cccc3nc(NCC4CC4)ccc23)N2CCC(F)(F)CC2)cn1 (stereo not drawn) [Compound 267]
33.1 nM | O=C(NCC(c1cncnc1)N1CCC(F)(F)CC1)c1cccc2nc(N3CCOCC3)ccc12 (stereo not drawn) [Compound 268]
229 nM | O=C(NCC(c1cnc(N2CCOCC2)nc1)N1CCC(F)(F)CC1)c1cccc2nc(N3CCOCC3)ccc12 (stereo not drawn) [Compound 269]
102 nM | O=C(NCC(c1cnc(NC2CC2)nc1)N1CCC(F)(F)CC1)c1cccc2nc(NC3CC3)ccc12 (stereo not drawn) [Compound 270]
107 nM | CC1CN(c2ccc3c(C(=O)NCC(c4cnc(C(F)(F)F)nc4)N4CCOCC4)cccc3n2)CCN1 (stereo not drawn) [Compound 271]
60.3 nM | CC(C)N(C)c1ccc2c(C(=O)NCC(c3cnc(C(F)(F)F)nc3)N3CCOCC3)cccc2n1 (stereo not drawn) [Compound 272]
112 nM | CC1(C)CCN(c2ccc3c(C(=O)NCC(c4cnc(C(F)(F)F)nc4)N4CCOCC4)cccc3n2)CC1 (stereo not drawn) [Compound 273]
145 nM | CCC1CN(c2ccc3c(C(=O)NCC(c4cnc(C(F)(F)F)nc4)N4CCOCC4)cccc3n2)CCN1 (stereo not drawn) [Compound 274]
70.8 nM | O=C(NCC(c1cnc(C(F)(F)F)nc1)N1CCOCC1)c1cccc2nc(NCC3CCCC3)ccc12 (stereo not drawn) [Compound 275]
813 nM | CC(C)(C)C1CCN(c2ccc3c(C(=O)NCC(c4cnc(C(F)(F)F)nc4)N4CCOCC4)cccc3n2)CC1 (stereo not drawn) [Compound 276]
46.8 nM | CC(C)OC1CCN(c2ccc3c(C(=O)NCC(c4cnc(C(F)(F)F)nc4)N4CCOCC4)cccc3n2)CC1 (stereo not drawn) [Compound 277]

IC50 | Compound
87.1 nM | COCC(C)Nc1ccc2c(C(=O)NCC(c3cnc(C(F)(F)F)nc3)N3CCOCC3)cccc2n1 (stereo not drawn) [Compound 278]
77.6 nM | CCN(CC)c1ccc2c(C(=O)NCC(c3cnc(C(F)(F)F)nc3)N3CCOCC3)cccc2n1 (stereo not drawn) [Compound 279]
95.5 nM | CC(C)CN1CCN(c2ccc3c(C(=O)NCC(c4cnc(C(F)(F)F)nc4)N4CCOCC4)cccc3n2)CC1 (stereo not drawn) [Compound 280]
75.9 nM | COCCN1CCN(c2ccc3c(C(=O)NCC(c4cnc(C(F)(F)F)nc4)N4CCOCC4)cccc3n2)CC1 (stereo not drawn) [Compound 281]
75.9 nM | CCc1ncc(C(CNC(=O)c2cccc3nc(N4CCCC4)ccc23)N2CCC(F)(F)CC2)cn1 (stereo not drawn) [Compound 282]
115 nM | O=C(NCC(c1cnc(-c2ccccc2)nc1)N1CCC(F)(F)CC1)c1cccc2nc(N3CCCC3)ccc12 (stereo not drawn) [Compound 283]
67.6 nM | CC(C)Oc1ncc(C(CNC(=O)c2cccc3nc(N4CCCC4)ccc23)N2CCOCC2)cn1 (stereo not drawn) [Compound 284]
158 nM | CC(C)N1CCN(c2ccc3c(C(=O)NCC(c4cnc(N5CCCC5)nc4)N4CCOCC4)cccc3n2)CC1 (stereo not drawn) [Compound 285]
38 nM | COc1ncc(C(CNC(=O)c2cccc3nc(N4CCCC4)ccc23)N2CCC(F)(F)CC2)cn1 (stereo not drawn) [Compound 286]
105 nM | O=C(NCC(c1cnc(N2CCNCC2)nc1)N1CCC(F)(F)CC1)c1cccc2nc(N3CCOCC3)ccc12 (stereo not drawn) [Compound 287]
135 nM | CC(C)c1ncc(C(CNC(=O)c2cccc3nc(N4CCN(C(C)C)CC4)ccc23)N2CCOCC2)cn1 (stereo not drawn) [Compound 288]
64.6 nM | CC(C)Oc1ncc(C(CNC(=O)c2cccc3nc(N4CCN(C(C)C)CC4)ccc23)N2CCOCC2)cn1 (stereo not drawn) [Compound 289]
135 nM | CCc1ncc(C(CNC(=O)c2cccc3nc(N4CCCC4)ccc23)N2CCOCC2)cn1 (stereo not drawn) [Compound 290]
46.8 nM | CC(C)N1CCN(c2ccc3c(C(=O)NCC(c4cnc(OCC5CC5)nc4)N4CCC(F)(F)CC4)cccc3n2)CC1 (stereo not drawn) [Compound 291]
115 nM | CCc1ncc(C(CNC(=O)c2cccc3nc(N4CCN(C(C)C)CC4)ccc23)N2CCC(F)(F)CC2)cn1 (stereo not drawn) [Compound 292]
105 nM | O=C(NCC(c1cnc(C2CCCC2)nc1)N1CCC(F)(F)CC1)c1cccc2nc(NCC3CC3)ccc12 (stereo not drawn) [Compound 293]
67.6 nM | O=C(NCC(c1cnc(OC2CCC2)nc1)N1CCC(F)(F)CC1)c1cccc2nc(NCC3CC3)ccc12 (stereo not drawn) [Compound 294]
209 nM | CCc1ncc(C(CNC(=O)c2cccc3nc(N4CCN(C(C)C)CC4)ccc23)N2CCOCC2)cn1 (stereo not drawn) [Compound 295]
123 nM | CCc1ncc(C(CNC(=O)c2cccc3nc(NCC4CC4)ccc23)N2CCOCC2)cn1 (stereo not drawn) [Compound 296]
32.4 nM | CC(C)N1CCN(c2ccc3c(C(=O)NCC(c4cncnc4)N4CCC(F)(F)CC4)cccc3n2)CC1 (stereo not drawn) [Compound 297]
